According to US20170001990A1 (Genentech, Inc., priority 2014, published 2017):

Target: Human recombinant carboxy-terminal his-tagged LDHA (amino acids 2-332) (Homo sapiens, UniProt P00338)
Test: LDHA enzyme inhibition assay (NADH fluorescence)
Settings: LDHA IC50 (μM), 1 nM LDHA, NADH and pyruvate, stereochemistry of tested sample given

Which IC50 does the source give for `O=C1CC(c2ccsc2)(c2cccc(OCCC3CC3)n2)NC(=O)C1Sc1ccccc1Cl` (centres unmarked) [Example 81, 3-((2-chlorophenyl)thio)-6-(6-(2-cyclopropyl-ethoxy)pyridin-2-yl)-6-(thiophen-3-yl)piperidine-2,4-dione] here?
Its IC50 is 0.229 µM.

`CN(C)c1cccc(C2(c3ccsc3)CC(=O)C(Sc3ccccc3Cl)C(=O)N2)n1` (centres unmarked) [Example 85, 3-((2-chlorophenyl)thio)-6-(6-(dimethylamino)pyridin-2-yl)-6-(thiophen-3-yl)piperidine-2,4-dione] was tested. Which IC50 did it give?
The IC50 was 0.018 µM.

`O=C1CC(c2ccsc2)(c2cccc(Oc3cccc4cccnc34)n2)NC(=O)C1Sc1ccccc1Cl` (centres unmarked) [Example 88, 33-(2-chlorophenyl) sulfanyl-6-[6-(8-quinolyloxy)-2-pyridyl]-6-(3-thienyl)piperidine-2,4-dione] was tested. Which IC50 did it give?
The IC50 was 0.017 µM.

`O=C1CC(c2ccsc2)(c2cccc(Oc3cccc4ccncc34)n2)NC(=O)C1Sc1ccccc1Cl` (centres unmarked) [Example 89, 3-(2-chlorophenyl)sulfanyl-6-[6-(8-iso-quinolyloxy)-2-pyridyl]-6-(3-thienyl)piperidine-2,4-dione] was tested. Which IC50 did it give?
The IC50 was 0.018 µM.

Which IC50 does the source give for `O=C1CC(c2ccsc2)(c2cccc(Oc3cccc4cnccc34)n2)NC(=O)C1Sc1ccccc1Cl` (centres unmarked) [Example 90, 3-((2-chlorophenyl)thio)-6-(6-(isoquinolin-5-yloxy)pyridin-2-yl)-6-(thiophen-3-yl)piperidine-2,4-dione] here?
The IC50 was 0.013 µM.

`O=C1C[C@](c2ccsc2)(c2cccc(OCCC3CC3)n2)NC(=O)C1Sc1ccccc1Cl` (stereo partly drawn) [Example 92, (6S)-3-((2-chlorophenyl)thio)-6-(6-(2-cyclopropyl-ethoxy)pyridin-2-yl)-6-(thiophen-3-yl)piperidine-2,4-dione] was tested. Which IC50 did it give?
Its IC50 is 0.007 µM.

For `COCc1ccccc1Oc1cccc(C2(c3ccsc3)CC(=O)C(Sc3ccccc3Cl)C(=O)N2)n1` (centres unmarked) [Example 94], which IC50 is on record?
Its IC50 is 0.023 µM.

For `O=C1C[C@@](c2ccsc2)(c2cccc(OCCC3CC3)n2)NC(=O)C1Sc1ccccc1Cl` (stereo partly drawn) [Example 95, (6R)-3-((2-chlorophenyl)thio)-6-(6-(2-cyclo-propylethoxy)pyridin-2-yl)-6-(thiophen-3-yl) piperidine-2,4-dione], which IC50 is on record?
Its IC50 is 0.29 µM.

For `O=C1CC(c2ccsc2)(c2cccc(Oc3ccccn3)n2)NC(=O)C1Sc1ccccc1Cl` (centres unmarked) [Example 96, 3-(2-chlorophenyl)sulfanyl-6-[6-(2-pyridyloxy)-2-pyridyl]-6-(3-thienyl) piperidine-2,4-dione], which IC50 is on record?
Its IC50 is 0.019 µM.

Which IC50 does the source give for `O=C1CC(c2ccsc2)(c2cccc(Oc3ccc(F)c4cccnc34)n2)NC(=O)C1Sc1ccccc1Cl` (centres unmarked) [Example 98, 3-(2-chlorophenyl)sulfanyl-6-[6-[(5-fluoro-8-quinolyl)oxy]-2-pyridyl]-6-(3-thienyl)piperidine-2,4-dione] here?
The IC50 was 0.167 µM.

`O=C1CC(c2ccsc2)(c2cccc(Oc3cccc4cccnc34)n2)NC(=O)C1Sc1ccccc1Cl` (centres unmarked) [Example 100, 3-((2-chlorophenyl)thio)-6-(6-(quinolin-8-yloxy)pyridin-2-yl)-6-(thiophen-3-yl)piperidine-2,4-dione] was tested. Which IC50 did it give?
Its IC50 is 0.046 µM.

`COCc1ccccc1Oc1cccc(C2(c3ccsc3)CC(=O)C(Sc3ccccc3Cl)C(=O)N2)n1` (centres unmarked) [Example 101] was tested. Which IC50 did it give?
The IC50 was 0.018 µM.

How did the IC50 turn out when `O=C1CC(c2ccsc2)(c2cccc(Oc3cccc4c3NCCC4)n2)NC(=O)C1Sc1ccccc1Cl` (centres unmarked) [Example 102, 3-(2-chlorophenyl)sulfanyl-6-[6-(1,2,3,4-tetrahydro-quinolin-8-yloxy)-2-pyridyl]-6-(3-thienyl) piperidine-2,4-dione] was run?
Its IC50 is 0.018 µM.

With `O=C1CC(c2ccsc2)(c2cccc(Oc3cccc4[nH]ncc34)n2)NC(=O)C1Sc1ccccc1Cl` (centres unmarked) [Example 103, 3-(2-chlorophenyl)sulfanyl-6-[6-(1H-indazol-4-yloxy)-2-pyridyl]-6-(3-thienyl) piperidine-2,4-dione] as the compound, how does the IC50 read?
The IC50 was 0.141 µM.

`O=C1CC(c2ccsc2)(c2cccc(N3CCCc4cccc(O)c43)n2)NC(=O)C1Sc1ccccc1Cl` (centres unmarked) [Example 105, 3-(2-chlorophenyl)sulfanyl-6-[6-(8-hydroxy-3,4-dihydro-2H-quinolin-1-yl)-2-pyridyl]-9-(3-thienyl)piperidine-2,4-dione] was tested. Which IC50 did it give?
The IC50 was 0.125 µM.

`O=C1CC(c2ccc(N3CCC(F)CC3)cc2)(c2ccsc2)NC(=O)C1Sc1ccccc1Cl` (centres unmarked) [Example 107, 3-(2-chlorophenyl)sulfanyl-6-[4-(4-fluoro-1-piperidyl)phenyl]-6-(3-thienyl)piperidine-2,4-dione] was tested. Which IC50 did it give?
The IC50 was 0.131 µM.

Which IC50 does the source give for `O=C1CC(c2ccsc2)(c2cccc(Oc3cccc4c3NCCC4)n2)NC(=O)C1Sc1ccccc1Cl` (centres unmarked) [Example 109, 3-((2-chlorophenyl)thio)-6-(6-((1,2,3,4-tetrahydro-quinolin-8-yl)oxy)pyridin-2-yl)-6-(thiophen-3-yl)piperidine-2,4-dione] here?
Its IC50 is 0.01 µM.

Which IC50 does the source give for `O=C1CC(c2ccsc2)(c2cccc(Oc3cccc4c3NCCC4)n2)NC(=O)C1Sc1ccccc1Cl` (centres unmarked) [Example 111, 3-((2-chlorophenyl)thio)-6-(6-((1,2,3,4-tetrahydro-quinolin-8-yl)oxy)pyridin-2-yl)-6-(thiophen-3-yl)piperidine-2,4-dione] here?
The IC50 was 0.012 µM.

How did the IC50 turn out when `O=C1CC(c2ccsc2)(c2cccc(Oc3ccc(F)c(C(F)(F)F)c3)n2)NC(=O)C1Sc1ccccc1Cl` (centres unmarked) [Example 123] was run?
The IC50 was 0.006 µM.

Which IC50 does the source give for `O=C1CC(c2ccsc2)(c2cccc(Cc3ccc(Cl)c(F)c3)n2)NC(=O)C1Sc1ccccc1Cl` (centres unmarked) [Example 130, 6-(6-(4-chloro-3-fluoro-benzyl)pyridin-2-yl)-3-((2-chlorophenyl)thio)-6-(thiophen-3-yl)piperidine-2,4-dione] here?
The IC50 was 0.005 µM.

How did the IC50 turn out when `O=C1CC(c2ccsc2)(c2cccc(NCCC3CC3)n2)NC(=O)C1Sc1ccccc1Cl` (centres unmarked) [Example 131, 3-(2-chlorophenyl)sulfanyl-6-[6-(2-cyclopropyl-ethylamino)-2-pyridyl]-6-(3-thienyl)piperidine-2,4-dione] was run?
Its IC50 is 0.046 µM.

`O=C1CC(c2ccsc2)(c2cccc(NCCC3CC3)n2)NC(=O)C1Sc1ccccc1Cl` (centres unmarked) [Example 138, 3-(2-chlorophenyl)sulfanyl-6-[6-(2-cyclopropyl-ethylamino)-2-pyridyl]-6-(3-thienyl)piperidine-2,4-dione] was tested. Which IC50 did it give?
The IC50 was 0.025 µM.

Which IC50 does the source give for `O=C1CC(c2ccsc2)(c2cccc(Oc3ccc(F)c(C(F)F)c3)n2)NC(=O)C1Sc1ccccc1Cl` (centres unmarked) [Example 139, 3-(2-chlorophenyl)sulfanyl-6-[6-[3-(difluoro-methyl)-4-fluoro-phenoxy]-2-pyridyl]-6-(3-thienyl) piperidine-2,4-dione] here?
The IC50 was 0.009 µM.

`O=C1CC(c2ccsc2)(c2cccc(Oc3cccc(C(F)(F)F)c3)n2)NC(=O)C1Sc1ccccc1Cl` (centres unmarked) [Example 140, 3-(2-chlorophenyl)sulfanyl-6-(3-thienyl)-6-[6-[3-(trifluoromethyl)phenoxy]-2-pyridyl]piperidine-2,4-dione] was tested. Which IC50 did it give?
The IC50 was 0.012 µM.

Which IC50 does the source give for `COc1cc(F)cc(Cc2cccc(C3(c4ccsc4)CC(=O)C(Sc4ccccc4Cl)C(=O)N3)n2)c1` (centres unmarked) [Example 147, 3-((2-chlorophenyl)thio)-6-(6-(3-fluoro-5-methoxy-benzyl)pyridin-2-yl)-6-(thiophen-3-yl)piperidine-2,4-dione] here?
The IC50 was 0.008 µM.

With `O=C1CC(c2ccsc2)(c2cccc(Oc3ccc(F)c(C(F)(F)F)c3)n2)NC(=O)C1Sc1ccccc1Cl` (centres unmarked) [Example 150, 3-(2-chlorophenyl)sulfanyl-6-[6-[4-fluoro-3-(trifluoromethyl)phenoxy]-2-pyridyl]-6-(3-thienyl) piperidine-2,4-dione] as the compound, how does the IC50 read?
The IC50 was 0.019 µM.

With `O=C1CC(c2ccsc2)(c2cccc(Cc3cc(F)cc(F)c3)n2)NC(=O)C1Sc1ccccc1Cl` (centres unmarked) [Example 151, 3-(2-chlorophenyl)sulfanyl-6-[6-[(3,5-difluorophenyl)methyl]-2-pyridyl]-6-(3-thienyl)piperidine-2,4-dione] as the compound, how does the IC50 read?
Its IC50 is 0.015 µM.

How did the IC50 turn out when `O=C1CC(c2ccsc2)(c2cccc(Oc3ccc(F)c(C(F)F)c3)n2)NC(=O)C1Sc1ccccc1Cl` (centres unmarked) [Example 152, 3-(2-chlorophenyl)sulfanyl-6-[6-[3-(difluoromethyl)-4-fluoro-phenoxy]-2-pyridyl]-6-(3-thienyl) piperidine-2,4-dione] was run?
The IC50 was 0.006 µM.

For `O=C1CC(c2ccsc2)(c2cccc(Oc3cccc(C(F)(F)F)c3)n2)NC(=O)C1Sc1ccccc1Cl` (centres unmarked) [Example 153, 3-(2-chlorophenyl)sulfanyl-6-(3-thienyl)-6-[6-[3-(trifluoromethyl)phenoxy]-2-pyridyl]piperidine-2,4-dione], which IC50 is on record?
The IC50 was 0.012 µM.

How did the IC50 turn out when `O=C1CC(c2ccsc2)(c2cccc(N3CC(C4CCOCC4)C3)n2)NC(=O)C1Sc1ccccc1Cl` (centres unmarked) [Example 162, 3-(2-chlorophenyl)sulfanyl-6-[6-(3-tetrahydropyran-4-ylazetidin-1-yl)-2-pyridyl]-6-(3-thienyl) piperidine-2,4-dione] was run?
Its IC50 is 0.004 µM.

Which IC50 does the source give for `CCC(C)COc1cccc(C2(c3ccsc3)CC(=O)C(Sc3ccccc3Cl)C(=O)N2)n1` (centres unmarked) [Example 164, 3-(2-chlorophenyl)sulfanyl-6-[6-(2-methylbutoxy)-2-pyridyl]-6-(3-thienyl) piperidine-2,4-dione] here?
Its IC50 is 0.009 µM.

How did the IC50 turn out when `O=C1CC(c2ccsc2)(c2cccc(Oc3ccc(Cl)cc3)n2)NC(=O)C1Sc1ccccc1Cl` (centres unmarked) [Example 167, 6-[6-(4-chlorophenoxy)-2-pyridyl]-3-(2-chlorophenyl) sulfanyl-6-(3-thienyl) piperidine-2,4-dione] was run?
The IC50 was 0.006 µM.

How did the IC50 turn out when `O=C1CC(c2ccsc2)(c2cccc(Oc3cccc(C(F)(F)F)c3)n2)NC(=O)C1Sc1ccccc1Cl` (centres unmarked) [Example 169, 3-(2-chlorophenyl)sulfanyl-6-(3-thienyl)-6-[6-[3-(trifluoromethyl)phenoxy]-2-pyridyl]piperidine-2,4-dione] was run?
The IC50 was 0.01 µM.

For `O=C1CC(c2ccsc2)(c2cccc(NCCC3CC3)n2)NC(=O)C1Sc1ccccc1Cl` (centres unmarked) [Example 173, 3-(2-chlorophenyl)sulfanyl-6-[6-(2-cyclopropyl-ethylamino)-2-pyridyl]-6-(3-thienyl)piperidine-2,4-dione], which IC50 is on record?
The IC50 was 0.183 µM.

With `O=C1CC(c2ccsc2)(c2cccc(NCCC3CC3)n2)NC(=O)C1Sc1ccccc1Cl` (centres unmarked) [Example 174, 3-(2-chlorophenyl)sulfanyl-6-[6-(2-cyclopropyl-ethylamino)-2-pyridyl]-6-(3-thienyl)piperidine-2,4-dione] as the compound, how does the IC50 read?
Its IC50 is 0.068 µM.
